Broadly, the IC50 is the concentration that inhibits the measured activity by half.

For one assay, the target named is T1, FLT3-ITD (Homo sapiens, UniProt P36888).
T1 sequence (P36888 1-993): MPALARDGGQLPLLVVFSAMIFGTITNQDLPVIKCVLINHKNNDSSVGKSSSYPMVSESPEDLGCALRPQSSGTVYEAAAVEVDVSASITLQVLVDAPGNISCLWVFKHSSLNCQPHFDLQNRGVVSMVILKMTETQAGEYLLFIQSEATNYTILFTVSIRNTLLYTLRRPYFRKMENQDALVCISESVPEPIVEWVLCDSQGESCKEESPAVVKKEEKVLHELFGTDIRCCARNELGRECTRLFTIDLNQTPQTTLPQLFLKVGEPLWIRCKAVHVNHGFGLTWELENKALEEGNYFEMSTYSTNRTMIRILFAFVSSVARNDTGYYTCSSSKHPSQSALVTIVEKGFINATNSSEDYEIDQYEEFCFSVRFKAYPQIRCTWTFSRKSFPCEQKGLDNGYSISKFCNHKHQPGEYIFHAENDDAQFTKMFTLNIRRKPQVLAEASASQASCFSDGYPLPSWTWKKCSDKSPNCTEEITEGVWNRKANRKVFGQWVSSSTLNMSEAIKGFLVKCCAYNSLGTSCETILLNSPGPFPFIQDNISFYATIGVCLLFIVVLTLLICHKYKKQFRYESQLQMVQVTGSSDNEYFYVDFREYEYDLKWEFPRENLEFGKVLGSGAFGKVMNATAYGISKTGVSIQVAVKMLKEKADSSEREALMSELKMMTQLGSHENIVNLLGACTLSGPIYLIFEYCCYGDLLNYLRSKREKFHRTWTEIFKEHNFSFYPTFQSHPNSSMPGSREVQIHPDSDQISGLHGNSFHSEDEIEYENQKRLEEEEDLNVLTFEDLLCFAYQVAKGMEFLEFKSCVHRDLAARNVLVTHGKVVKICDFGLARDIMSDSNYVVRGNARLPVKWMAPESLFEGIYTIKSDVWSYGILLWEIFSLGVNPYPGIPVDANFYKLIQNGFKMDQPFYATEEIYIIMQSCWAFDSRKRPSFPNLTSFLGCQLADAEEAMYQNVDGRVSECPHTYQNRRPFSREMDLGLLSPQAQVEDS
Description: AlphaScreen kinase assay with recombinant enzyme, FLT3-ITD. It counts as biochemical. The note with it: 8pt; read-out: FLT3_ITD 8pt: IC50. The procedure, abridged: (§1)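 Tyrosine phosphorylation of biotin-poly(Glu4-Tyr) substrate by recombinant enzyme is detected with PY20 acceptor and streptavidin donor beads after room-temperature incubations of 20 and 60 min. IC50 values were derived at a final 10 μM (FLT3-D835Y, FLT3-ITD) or 100 μM (c-KIT).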
For orientation: Bead proximity is the source of the signal in Alpha formats.

Another assay deals with T2, FLT3-D835Y (Homo sapiens, UniProt P36888, D835Y).
T2 construct: purchased Invitrogen PV3967
T2 sequence (P36888 27-993 D835Y): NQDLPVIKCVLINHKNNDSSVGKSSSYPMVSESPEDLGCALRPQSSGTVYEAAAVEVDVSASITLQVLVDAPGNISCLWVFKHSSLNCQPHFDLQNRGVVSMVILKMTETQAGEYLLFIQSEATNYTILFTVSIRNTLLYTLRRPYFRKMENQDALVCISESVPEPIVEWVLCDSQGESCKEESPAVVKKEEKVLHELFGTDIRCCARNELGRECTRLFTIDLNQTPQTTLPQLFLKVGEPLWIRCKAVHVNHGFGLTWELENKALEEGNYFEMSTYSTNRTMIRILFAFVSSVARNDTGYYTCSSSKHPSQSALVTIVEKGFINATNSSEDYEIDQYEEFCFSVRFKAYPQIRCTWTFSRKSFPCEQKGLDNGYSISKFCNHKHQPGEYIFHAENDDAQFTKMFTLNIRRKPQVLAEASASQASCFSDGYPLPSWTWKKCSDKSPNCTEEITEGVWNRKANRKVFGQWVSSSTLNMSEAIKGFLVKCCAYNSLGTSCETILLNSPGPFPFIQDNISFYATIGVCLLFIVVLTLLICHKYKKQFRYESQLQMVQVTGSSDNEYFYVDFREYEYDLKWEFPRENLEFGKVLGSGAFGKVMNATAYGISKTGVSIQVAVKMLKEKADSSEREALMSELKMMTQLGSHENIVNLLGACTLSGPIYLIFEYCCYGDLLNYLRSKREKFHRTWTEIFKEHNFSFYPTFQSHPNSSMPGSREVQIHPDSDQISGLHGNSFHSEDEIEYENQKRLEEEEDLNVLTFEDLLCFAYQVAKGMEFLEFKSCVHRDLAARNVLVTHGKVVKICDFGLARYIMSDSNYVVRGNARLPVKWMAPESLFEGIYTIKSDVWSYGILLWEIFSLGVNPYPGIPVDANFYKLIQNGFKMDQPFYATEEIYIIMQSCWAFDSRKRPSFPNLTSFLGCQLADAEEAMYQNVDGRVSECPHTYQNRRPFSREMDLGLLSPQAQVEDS
Description: AlphaScreen kinase assay with recombinant enzyme, FLT3-D835Y. Particulars: 8pt, GMean. In kind it is biochemical. The procedure, abridged: as §1

As for `N#CC1CCN(C(=O)c2cccc(-c3cnc4[nH]c(C5=CCN(C(=O)C6CC6)C5)cc4c3)n2)C1` (centres unmarked) [Compound P-0136, 1-[6-[2-[1-(cyclopropanecarbonyl)-2,5-dihydropyrrol-3-yl]-1H-pyrrolo[2,3-b]pyridin-5-yl]pyridine-2-carbonyl]pyrrolidine-3-carbonitrile], the IC50 on FLT3-ITD and on FLT3-D835Y was 0.0001 to 10 µM throughout.

As to `N#CC1(CNC(=O)c2cccc(-c3cnc4[nH]c(-c5ccccc5)cc4c3)n2)CC1` [Compound P-0137, N-[(1-cyanocyclopropyl)methyl]-6-(2-phenyl-1H-pyrrolo[2,3-b]pyridin-5-yl)pyridine-2-carboxamide], the IC50 on FLT3-ITD and at FLT3-D835Y was 0.0001 to 10 µM throughout.

Take `CC(C)(C#N)CNC(=O)c1cccc(-c2cnc3[nH]c(-c4ccccc4)c(Cl)c3c2)n1` [Compound P-0138, 6-(3-chloro-2-phenyl-1H-pyrrolo[2,3-b]pyridin-5-yl)-N-(2-cyano-2-methyl-propyl)pyridine-2-carboxamide]: the IC50 at FLT3-ITD and at FLT3-D835Y was 0.0001 to 10 µM throughout.

On to `N#CC1(NC(=O)c2cccc(-c3cnc4[nH]c(-c5ccccc5)c(Cl)c4c3)n2)CC1` [Compound P-0139, 6-(3-chloro-2-phenyl-1H-pyrrolo[2,3-b]pyridin-5-yl)-N-(1-cyanocyclopropyl)pyridine-2-carboxamide], for which the IC50 at FLT3-ITD and on FLT3-D835Y was 0.0001 to 10 µM in each case.

Consider `CC(C)(C)NC(=O)c1cccc(-c2cnc3[nH]c(-c4ccccc4)cc3c2)n1` [Compound P-0140, N-tert-butyl-6-(2-phenyl-1H-pyrrolo[2,3-b]pyridin-5-yl)pyridine-2-carboxamide], for which the IC50 at FLT3-ITD and on FLT3-D835Y was 0.0001 to 10 µM each time.

Consider `CC(C)(C#N)CNC(=O)c1cccc(-c2cnc3[nH]c(C4=CCN(C(=O)C5CC5)C4)cc3c2)n1` [Compound P-0141, N-(2-cyano-2-methyl-propyl)-6-[2-[1-(cyclopropanecarbonyl)-2,5-dihydropyrrol-3-yl]-1H-pyrrolo[2,3-b]pyridin-5-yl]pyridine-2-carboxamide], for which the IC50 on FLT3-ITD and at FLT3-D835Y was 0.0001 to 10 µM in each case.

Turning to `N#CC1CCN(C(=O)c2cccc(-c3cnc4[nH]c(C5=CCOCC5)c(Cl)c4c3)n2)C1` (centres unmarked) [Compound P-0142, 1-[6-[3-chloro-2-(3,6-dihydro-2H-pyran-4-yl)-1H-pyrrolo[2,3-b]pyridin-5-yl]pyridine-2-carbonyl]pyrrolidine-3-carbonitrile], the IC50 on FLT3-ITD and on FLT3-D835Y was 0.0001 to 10 µM throughout.

With `N#CCCNC(=O)c1cccc(-c2cnc3[nH]c(-c4ccccc4)c(I)c3c2)n1` [Compound P-0143, N-(2-cyanoethyl)-6-(3-iodo-2-phenyl-1H-pyrrolo[2,3-b]pyridin-5-yl)pyridine-2-carboxamide], the IC50 on FLT3-ITD and on FLT3-D835Y was 0.0001 to 10 µM in each case.

For the compound `CC(C)(C#N)CNC(=O)c1cccc(-c2cnc3[nH]c(-c4ccc(F)cc4)cc3c2)n1` [Compound P-0144, N-(2-cyano-2-methyl-propyl)-6-[2-(4-fluorophenyl)-1H-pyrrolo[2,3-b]pyridin-5-yl]pyridine-2-carboxamide], the IC50 at FLT3-ITD and on FLT3-D835Y was 0.0001 to 10 µM each time.

On to `CC(C)(C#N)NC(=O)c1cccc(-c2cnc3[nH]c(-c4ccc(F)cc4)cc3c2)n1` [Compound P-0145, N-(1-cyano-1-methyl-ethyl)-6-[2-(4-fluorophenyl)-1H-pyrrolo[2,3-b]pyridin-5-yl]pyridine-2-carboxamide], for which the IC50 at FLT3-ITD and at FLT3-D835Y was 0.0001 to 10 µM throughout.

For the compound `N#CC1(NC(=O)c2cccc(-c3cnc4[nH]c(-c5ccccc5)cc4c3)n2)CCCC1` [Compound P-0146, N-(1-cyanocyclopentyl)-6-(2-phenyl-1H-pyrrolo[2,3-b]pyridin-5-yl)pyridine-2-carboxamide], the IC50 at FLT3-ITD and on FLT3-D835Y was 0.0001 to 10 µM throughout.

Regarding `N#CCCNC(=O)c1cccc(-c2cnc3[nH]c(-c4ccccc4)c(Br)c3c2)n1` [Compound P-0147, 6-(3-bromo-2-phenyl-1H-pyrrolo[2,3-b]pyridin-5-yl)-N-(2-cyanoethyl)pyridine-2-carboxamide], the IC50 at FLT3-ITD and at FLT3-D835Y was 0.0001 to 10 µM each time.

Take `N#CC1(CNC(=O)c2cccc(-c3cnc4[nH]c(-c5ccccc5)c(Cl)c4c3)n2)CC1` [Compound P-0148, 6-(3-chloro-2-phenyl-1H-pyrrolo[2,3-b]pyridin-5-yl)-N-[(1-cyanocyclopropyl)methyl]pyridine-2-carboxamide]: the IC50 at FLT3-ITD and at FLT3-D835Y was 0.0001 to 10 µM throughout.

Regarding `O=C(NC1(C(F)(F)F)CCCC1)c1cccc(-c2cnc3[nH]c(-c4ccccc4)cc3c2)n1` [Compound P-0149, 6-(2-phenyl1H-pyrrolo[2,3-b]pyridin-5-yl)-N-[1-(trifluoromethyl)cyclopentyl]pyridine-2-carboxamide], the IC50 on FLT3-ITD and at FLT3-D835Y was 0.0001 to 10 µM each time.

For the compound `CC(C)(O)CNC(=O)c1cccc(-c2cnc3[nH]c(-c4ccccc4)cc3c2)n1` [Compound P-0150, N-(2-hydroxy-2-methyl-propyl)-6-(2-phenyl-1H-pyrrolo[2,3-b]pyridin-5-yl)pyridine-2-carboxamide], the IC50 at FLT3-ITD and on FLT3-D835Y was 0.0001 to 10 µM in each case.

As for `O=C(NC1(CO)CC1)c1cccc(-c2cnc3[nH]c(-c4ccccc4)cc3c2)n1` [Compound P-0151, N-[1-(hydroxymethyl)cyclopropyl]-6-(2-phenyl-1H-pyrrolo[2,3-b]pyridin-5-yl)pyridine-2-carboxamide], the IC50 at FLT3-ITD and at FLT3-D835Y was 0.0001 to 10 µM throughout.

Take `CC(C)(C#N)CNC(=O)c1cccc(-c2cnc3[nH]c(-c4ccnc(C5CC5)c4)cc3c2)n1` [Compound P-0152, N-(2-cyano-2-methyl-propyl)-6-[2-(2-cyclopropyl-4-pyridyl)-1H-pyrrolo[2,3-b]pyridin-5-yl]pyridine-2-carboxamide]: the IC50 on FLT3-ITD and at FLT3-D835Y was 0.0001 to 10 µM in each case.

Regarding `CC(C)(C#N)CNC(=O)c1cccc(-c2cnc3[nH]c(-c4cnn(C(F)F)c4)cc3c2)n1` [Compound P-0153, N-(2-cyano-2-methyl-propyl)-6-[2-[1-(difluoromethyl)pyrazol-4-yl]-1H-pyrrolo[2,3-b]pyridin-5-yl]pyridine-2-carboxamide], the IC50 on FLT3-ITD and on FLT3-D835Y was 0.0001 to 10 µM in each case.

With `COc1cc(-c2cc3cc(-c4cccc(C(=O)NCC(C)(C)C#N)n4)cnc3[nH]2)ccn1` [Compound P-0154, N-(2-cyano-2-methyl-propyl)-6-[2-(2-methoxy-4-pyridyl)-1H-pyrrolo[2,3-b]pyridin-5-yl]pyridine-2-carboxamide], the IC50 at FLT3-ITD and at FLT3-D835Y was 0.0001 to 10 µM throughout.

The values are drawn from patent US9938273B2 (Plexxikon Inc., priority 2015, dated 2018).
